Data from patent US4235916A, “2-Methylthio-6-fluoro-9-(1-methyl-4-piperidylidene)-thioxanthene and salts thereof, neuroleptic compositions and method of use” (Kefalas A/S, priority 1977, dated 1980).
Like-named read-outs stand apart in the source and are kept apart here.

What was measured:
methylphenidate = assay: Methylphenidate antagonism; format: in vivo, male; details: Mus musculus, ip, mice, i.p.
Protocol: Methylphenidate antagonism (ED50 mg/kg i.p.)
Perspex observation cages without bottom and lid, consisting of 5 sections each measuring 12×25×30 cm. White corrugated paper. Mice, male, 18-25 g.
3×2 mice are used for each dose level. Two or 24 hours after injection of test substance, methylphenidate, 60 mg/kg, is injected s.c.
After administration of methylphenidate the mice are placed in the observation cages, 2 in each cage, where they remain for exactly 1 hour. The cages are placed on corrugated paper, the corrugations facing upwards. It is examined whether the mice have been biting the corrugated paper or not. […] If one or more of the control pairs have not been biting, the test has to be repeated on a new set of mice.
The result is stated in fractions: 0/3, 1/3, 2/3 and 3/3 where 0, 1, 2 and 3 are the number of pairs which have not been biting on receipt of the dose in question.

physostigmine = assay: Physostigmine antagonism; format: in vivo, male; details: Mus musculus, ip, 0.5 h; mice, i.p., physostigmine 2 mg/kg i.p. thirty minutes after test substance; survivors after 60 minutes; read-out: Physostigmine antag. (ED50)
Protocol: Physostigmine antagonism (ED50 mg/kg i.p.)
Scopolamine bromide 0.04 mg/ml or 0.1 mg/ml.
Physostigmine salicylate 0.2 mg/ml.
Five mice are used for each dose level. One group, serving as positive control, is injected with scopolamine 0.4 mg/kg i.p. Thirty minutes after i.p. administration of test substance (or scopolamine), physostigmine 2 mg/kg, is injected i.p. This dose of physostigmine induces tremor with salivation, clonic convulsions, coma and death. After 60 minutes the number of survivors are counted.
The results are recorded in fractions: 0/5, 1/5, 2/5, 3/5, 4/5 and 5/5 where 0, 1, 2, 3, 4 and 5 inducate the number of animals in which the test compound has prevented the occurrence of death.

amphetamine = assay: Amphetamine antagonism; format: in vivo, Rats, male; details: for ED50: Rattus norvegicus, ip, 2 h, rats, i.p., amphetamine sulphate 13.6 mg/kg i.v. two hours later, read-out: Amphetamine antag. (ED50)
Protocol: Amphetamine antagonism (ED50 mg/kg i.p.)
Perspex observation cages without bottom and lid, consisting of 5 sections each measuring 12×25×30 cm.
The test substance is given i.p. in a reasonable dose based on the determined LD50. Two hours later an intravenous injection of amphetamine sulphate 13.6 mg/kg (~10 mg/kg amphetamine base) is given, after which the rats are placed individually in the cages. The cages are placed on white corrugated paper. Five rats are used for each dose level. Observations are made after 55 minutes and 65 minutes--observation time: 1 minute. The animals are observed for stereotypy (movements of the head, compulsive gnawing). […] If the compound has full antagonistic effect another group of rats is used at a lower dose. […] The result is stated as fractions: 0/5, 1/5, 2/5, 3/5, 4/5 and 5/5, where 0, 1, 2, 3, 4 and 5 indicate the number of rats which have not shown stereotypy at the dose in question. The results are calculated as ED50 in mg/kg.

[1] = Catalepsy wire mesh, rat, max.; format: in vivo, male; details: rats; for Ratio Catalep./Amphetam. antag.: catalepsy ED50 (s.c.) / amphetamine antagonism ED50 (i.p.); for ED50: rat, in vivo, sc, wire mesh, maximum effect within first 6 hours
Protocol: Catalepsy wire mesh, rat, max. (ED50 mg/kg s.c.)
A vertical wire netting (50 cm×49 cm). The meshes (openings) of the netting are square (1 cm×1 cm). The wire diameter is 2 mm.
The animals are labeled and used in groups of five. The test substance is injected subcutaneously (s.c.) (5 ml/kg) at 4 dose levels selected from the fixed dose scale.
The animals are placed in the middle of the vertical wire netting 60, 120, 180, 240, 300 and 360 minutes after injection of the test compound. The animals are considered cetaleptic when they remain immobile during a period of 15 seconds. This cataleptic reaction is designated +. If the rats are "atonic" and passively slides down the wire mesh they are considered not cataleptic. If the animals climb up and down the wire mesh they are nor cataleptic. In both situations the designation - is used.

[2] = Determination of LD50 (acute toxicity, i.p.); format: in vivo, Mice, male; details: for LD50 at 24 h: mouse, in vivo, ip, mice, i.p., deaths after 24 hours; for acute toxicity, in words: compared with Lu 14-089 or related thioxanthene derivatives
Protocol: Determination of LD50 (mg/kg i.p.)
Mice, male, weighing from 18-25 g, fasted from 4 p.m. the day before test day.
Four treated groups and one control group, each of 4 mice, are used.
The test substance is suspended in methyl cellulose 0.5% and injected intraperitoneally. The animals are placed in Macrolon cages type II. […] Furthermore the results are recorded according to the punching instructions as fractions: 0/4, 1/4, 2/4, 3/4 and 4/4 where 0, 1, 2, 3 and 4 indicate the number of deaths after the dose in question.

apomorphine = assay: Apomorphine vomit; format: in vivo, Adult Beagle dogs; details: Canis lupus familiaris, sc, 4 h; Beagle dogs, s.c., four hours before apomorphine 25 μg/kg i.v.; calculated ED50 approximate; read-out: Apomorph. Vomit (ED50)
Protocol: Adult Beagle dogs of either sex, housed individually in kennels or in cages.
2-4 dogs are used per dose level.
The test compound is injected subcutanelusly in the back of the neck four hours before apomorphine, which is given intravenously in a dose of 25 μg/kg (volume 0.1 ml/kg).
The results are given as fractions, i.e. 0/2, 1/2 or 2/2, stating the number of dogs protected against vomiting over to the number of dogs. On account of the small number of animals the calculated ED50 should be considered approximate.

Muscarinic = Muscarinic affinity binding (3H-PrBCM, whole brain P2 fraction); parameters: species or system Rats; details: displacement of specific 3H-PrBCM binding by 50%; rat brain, pH 7.4, 30° C.; read-out: Muscarine affinity (IC50)
Protocol: Muscarinic affinity binding
Sodium thiosulphate 10 mM (2.48 g/1000 ml) ^3 H-PrBCM (N-2'-chloroethyl-N-[2", 3"-^3 H2 ] propyl-2-aminoethylbenzilate,spec. act. ~28 Ci/mM).
A rat is killed by a blow on the head and exsanguinated. The whole brain is removed and homogenized in 10 volumes of ice cold 0.32 M sucrose with a hand homogenizer. The homogenate is centrifuged at 600 g for 10 minutes (4° C.) and the pellet discarded. The supernatant is then centrifuged at 25000 g for 55 minutes (4° C.). The pellet fraction (P2) is resuspended in the same volume of 0.32 M sucrose as previously used and stored on ice.
The aziridinium ion of ^3 H-propylbenzilyllcholine mustard (^3 H-PrBCM) is prepared by cyclization at a concentration of 130 nM in 15 mM Na-phosphate buffer (pH 7.4) for 50 minutes at 20° C. The reaction is terminated by addition of 100 volumes of ice cold buffer.
The incubation is continued for 15 minutes and stopped by addition of 20 ml 100 mM phosphate buffer containing 10 mM sodium thiosulphate. The samples are filtered through Whatman GF/C glass fiber filters and washed with 30 ml ice cold 100 mM phosphate buffer. The filters with synaptosomes are transferred to scintillation vials and the radio-activity measured by liquid scintillation counting after addition of 10 ml Instal-Gel (Packard Inst.). All experiments are performed in triplicate.
Specific ^3 H-PrBCM binding is defined as the total binding minus the binding in the presence of 20 μM atropine.

[3] = Neuroleptic and pharmacological profile evaluated by standard test methods (overall statements); format: in vivo
Text: The pharmacological testing of 2-methylthio-6-fluoro-9-(1-methyl-4-piperidylidene)-thioxanthene, in the following called Lu 14-089 for short, and its non-toxic acid addition salts consisted of standard and reliable tests.

[4] = Administration to human beings; details: in vivo
Text: Lu 14-089 as well as the non-toxic acid addition salts thereof may be administered to animals such as dogs, cats, horses sheeps or the like, including human beings, both orally and parenterally, and may be used for example in the form of tablets capsules, powders, syrups, suppositories, or in the form of the usual sterile solutions for injection.

[5] = methylphenidate 60 mg/kg s.c. 2 h after test substance, read-out: Methylphenidate antag. 2h (ED50)
[6] = methylphenidate 60 mg/kg s.c. 24 h after test substance, read-out: Methylphenidate antag. 24h (ED50)

Row | Compound | ED50 (methylphenidate; [5]) | ED50 (physostigmine) | ED50 (amphetamine) | Ratio Catalep./Amphetam. antag. [1] | ED50 [1] | LD50 at 24 h [2] | ED50 (methylphenidate; [6]) | ED50 (apomorphine) | IC50 (Muscarinic) | neuroleptic activity as expressed by the amphetamine antagonism, in words (amphetamine; compared with Lu 14-089) | acute toxicity, in words [2] | neuroleptic effects, in words ([3]; compound and its non-toxic acid addition salts) | anticholinergic effects, in words ([3]; in vivo) | extrapyramidal side effects, in words ([3]; pharmacological profile, standard test methods) | Results upon administration to human beings [4]
1 | CN1CCC(=C2c3ccc(F)cc3Sc3ccc(Cl)cc32)CC1 [Lu 12-304, 2-Chloro-6-fluoro-9-(1-methyl-4-piperidylidene)-thioxanthene] | 4.6 mg/kg | 8.9 mg/kg | 5.5 mg/kg | 0.62 | 3.4 mg/kg | 187 mg/kg |  |  |  |  |  |  |  |  | 
2 | CN1CCC(=C2c3ccc(F)cc3Sc3ccc(C(F)(F)F)cc32)CC1 [Lu 12-312, 2-Trifluoromethyl-6-fluoro-9-(1-methyl-4-piperidylidene)-thioxanthene] | 0.07 mg/kg | 7.7 mg/kg | 0.56 mg/kg | 0.12 | 0.067 mg/kg | 188 mg/kg | 2.1 mg/kg | 0.04 mg/kg | 18 nM |  |  |  |  |  | 
3 | CN1CCC(=C2c3ccccc3Sc3ccc(C(F)(F)F)cc32)CC1 [Lu 13-003, 2-Trifluoromethyl-9-(1-methyl-4-piperidylidene)-thioxanthene] | 0.15 mg/kg | 4.6 mg/kg | 0.37 mg/kg | 3.5 | 1.3 mg/kg | 187 mg/kg |  |  | 8 nM |  |  |  |  |  | 
4 | CN1CCC(=C2c3ccccc3Sc3ccc(Cl)cc32)CC1 [Lu 13-016, 2-Chloro-9-(1-methyl-4-piperidylidene)-thioxanthene] | 1 mg/kg | 4.4 mg/kg | 3.9 mg/kg | 6.5 | 25 mg/kg | 226 mg/kg | > 20 mg/kg |  | 14 nM | much lower neuroleptic activity | higher acute toxicity |  |  |  | 
5 | CSc1ccc2c(c1)C(=C1CCN(C)CC1)c1ccc(F)cc1S2 [Lu 14-089, 2-methylthio-6-fluoro-9-(1-methyl-4-piperidylidene)-thioxanthene] | 0.1 mg/kg | 7.2 mg/kg | 0.74 mg/kg | 8.5 | 6.3 mg/kg | > 320 mg/kg | 14 mg/kg | 0.014 mg/kg | 14 nM |  | low acute toxicity compared with related thioxanthene derivatives | strong and relatively longlasting neuroleptic effects | strong anticholinergic effects | low extrapyrimidal side effects | very gratifying
6 | CSc1ccc2c(c1)C(=C1CCN(C)CC1)c1ccccc1S2 [Lu 14-145, 2-Methylthio-9-(1-methyl-4-piperidylidene)-thioxanthene] | 1.4 mg/kg | 4.9 mg/kg | > 20 mg/kg |  | > 20 mg/kg | 188 mg/kg | 14 mg/kg |  | 13 nM |  |  |  |  |  | 
7 | CN(C)CCCN1c2ccccc2Sc2ccc(Cl)cc21 [chlorpromazine] | 4 mg/kg | > 40 mg/kg | 7.1 mg/kg |  | 5.6 mg/kg | 226 mg/kg | 20 mg/kg | 0.36 mg/kg |  |  |  |  |  |  | 
8 | CN(C)CC/C=C1/c2ccccc2Sc2ccc(Cl)cc21 [chlorprothixene] | 0.71 mg/kg | 86 mg/kg | 6.1 mg/kg |  | 4 mg/kg | 226 mg/kg | > 20 mg/kg | 0.9 mg/kg |  |  |  |  |  |  | 
9 | OCCN1CCN(CCC=C2c3ccccc3Sc3ccc(Cl)cc32)CC1 [clopenthixol] | 1.2 mg/kg | > 20 mg/kg | 0.77 mg/kg |  | 0.95 mg/kg | 226 mg/kg |  | 0.04 mg/kg |  |  |  |  |  |  | 
10 | CN1CCN(C2=Nc3cc(Cl)ccc3Nc3ccccc32)CC1 [clozapine] | > 160 mg/kg | 24 mg/kg | > 40 mg/kg |  | 85 mg/kg | > 320 mg/kg |  | ~4 mg/kg |  |  |  |  |  |  | 
11 | OCCN1CCN(CCC=C2c3ccccc3Sc3ccc(C(F)(F)F)cc32)CC1 [flupentixol] | 0.2 mg/kg | > 40 mg/kg | 0.69 mg/kg | 0.36 | 0.25 mg/kg | 246 mg/kg | > 20 mg/kg | 0.02 mg/kg | 4000 nM |  |  |  |  |  | 
12 | OCCN1CCN(CCCN2c3ccccc3Sc3ccc(C(F)(F)F)cc32)CC1 [fluphenazine] | 0.04 mg/kg | > 20 mg/kg | 0.08 mg/kg |  | 0.099 mg/kg | 259 mg/kg | 3.6 mg/kg | 0.007 mg/kg |  |  |  |  |  |  | 
13 | O=C(CCCN1CCC(O)(c2ccc(Cl)cc2)CC1)c1ccc(F)cc1 [haloperidol] | 0.06 mg/kg | > 20 mg/kg | 0.14 mg/kg |  | 0.21 mg/kg | 226 mg/kg |  | 0.01 mg/kg |  |  |  |  |  |  | 
